From publication PMC5739799 (Oncotarget, 2017)

Assay: Steady-state plasma pharmacokinetics after oral dosing for 5 days
Format: in vivo, BALB/c nu/nu mice
Procedure: Pharmacokinetic studies were performed in 6–8-week-old female BALB/c nu/nu mice (Charles River, Sulzfeld, Germany). […] Parent compounds and metabolites M-2 and M-5 were analyzed in plasma samples using validated bioanalytical liquid chromatography-tandem mass spectrometry (LC-MS/MS) methods according to an experimental protocol described earlier. PK parameters, namely the AUC(0–24)ss and Cmax, were calculated from plasma concentrations using a non-compartmental analysis.

[1] = after oral regorafenib 10 mg/kg/day for 5 days, total = molar sum of regorafenib, M-2, M-5

Row | SMILES | AUC(0–24)ss (percent of total) [1] | AUC(0–24)ss (percent of total) (after oral sorafenib tosylate 30 mg/kg/day for 5 days, total = molar sum of sorafenib and M-2)
1 | CNC(=O)c1cc(Oc2ccc(NC(=O)Nc3ccc(Cl)c(C(F)(F)F)c3)c(F)c2)cc[n+]1[O-] [M-2] | 9% of total | 1% of total
2 | NC(=O)c1cc(Oc2ccc(NC(=O)Nc3ccc(Cl)c(C(F)(F)F)c3)c(F)c2)cc[n+]1[O-] [M-5] | 1% of total | 
